Test results published in PMC7613998, “Development of selective inhibitors of phosphatidylinositol 3-kinase C2α” (Nature Chemical Biology, 2022).

Experiments:
Experiment in all cases: biochemical
Set-up in all cases: SelectScreen Z'-LYTE purified kinase panel, per cent inhibition, mean of two points
Details in all cases: (μM)=Km app
AURKB (Aurora B) = AURKB (Aurora B) (Homo sapiens, UniProt Q96GD4)
EPHA2 = EPHA2 (Homo sapiens, UniProt P29317)
PAK1 = PAK1 (Homo sapiens, UniProt Q13153)
PRKACA (PKA) = PRKACA (PKA) (Homo sapiens, UniProt P17612)
KIT = KIT (Homo sapiens, UniProt P10721)
INSR = INSR (Homo sapiens, UniProt P06213)
AXL = molecular target: T1, AXL (Homo sapiens, UniProt P30530)
T1 sequence (P30530 1-894): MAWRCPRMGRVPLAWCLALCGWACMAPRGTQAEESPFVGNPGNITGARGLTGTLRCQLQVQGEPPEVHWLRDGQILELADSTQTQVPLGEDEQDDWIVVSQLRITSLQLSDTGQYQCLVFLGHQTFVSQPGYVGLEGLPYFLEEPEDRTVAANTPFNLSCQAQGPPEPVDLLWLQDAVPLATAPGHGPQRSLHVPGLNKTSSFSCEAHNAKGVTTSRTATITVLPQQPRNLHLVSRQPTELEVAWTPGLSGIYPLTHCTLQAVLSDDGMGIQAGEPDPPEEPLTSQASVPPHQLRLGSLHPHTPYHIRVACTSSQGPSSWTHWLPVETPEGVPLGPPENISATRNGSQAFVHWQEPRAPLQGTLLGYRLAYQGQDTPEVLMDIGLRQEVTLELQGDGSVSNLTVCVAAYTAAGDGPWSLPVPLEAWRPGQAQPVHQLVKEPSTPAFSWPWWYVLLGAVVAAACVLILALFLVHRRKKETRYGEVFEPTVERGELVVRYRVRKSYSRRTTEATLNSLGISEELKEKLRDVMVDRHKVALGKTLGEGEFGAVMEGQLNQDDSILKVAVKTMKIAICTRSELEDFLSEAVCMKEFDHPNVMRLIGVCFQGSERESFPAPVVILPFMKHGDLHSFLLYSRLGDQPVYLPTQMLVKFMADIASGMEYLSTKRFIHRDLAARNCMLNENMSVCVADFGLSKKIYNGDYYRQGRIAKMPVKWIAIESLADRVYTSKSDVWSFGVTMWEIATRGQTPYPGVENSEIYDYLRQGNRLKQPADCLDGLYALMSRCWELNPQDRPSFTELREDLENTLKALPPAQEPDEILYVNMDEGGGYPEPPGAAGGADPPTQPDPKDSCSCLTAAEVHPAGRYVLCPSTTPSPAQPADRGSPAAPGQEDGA

ACVR1B (ALK4) = molecular target: T2, ACVR1B (ALK4) (Homo sapiens, UniProt P36896)
T2 sequence (P36896 1-505): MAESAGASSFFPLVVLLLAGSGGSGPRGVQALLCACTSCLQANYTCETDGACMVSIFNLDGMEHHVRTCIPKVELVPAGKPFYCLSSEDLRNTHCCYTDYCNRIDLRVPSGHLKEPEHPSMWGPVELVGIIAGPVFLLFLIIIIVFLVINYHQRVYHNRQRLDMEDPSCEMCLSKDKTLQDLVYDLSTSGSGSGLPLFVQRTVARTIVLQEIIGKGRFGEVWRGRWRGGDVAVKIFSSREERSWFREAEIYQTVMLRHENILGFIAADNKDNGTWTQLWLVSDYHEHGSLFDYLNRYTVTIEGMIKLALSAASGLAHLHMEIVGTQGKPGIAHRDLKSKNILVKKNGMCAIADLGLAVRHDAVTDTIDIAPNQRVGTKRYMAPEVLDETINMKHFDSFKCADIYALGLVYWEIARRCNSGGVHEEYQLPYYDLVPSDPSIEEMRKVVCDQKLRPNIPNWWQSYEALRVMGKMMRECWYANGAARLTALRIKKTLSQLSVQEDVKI

JAK2 JH1 JH2 = molecular target: T3, JAK2 JH1 JH2 (Homo sapiens, UniProt O60674)
T3 construct: JH1 JH2

CSF1R (FMS) = CSF1R (FMS) (Homo sapiens, UniProt P07333)
Sequence of CSF1R (FMS) (P07333 whole entry): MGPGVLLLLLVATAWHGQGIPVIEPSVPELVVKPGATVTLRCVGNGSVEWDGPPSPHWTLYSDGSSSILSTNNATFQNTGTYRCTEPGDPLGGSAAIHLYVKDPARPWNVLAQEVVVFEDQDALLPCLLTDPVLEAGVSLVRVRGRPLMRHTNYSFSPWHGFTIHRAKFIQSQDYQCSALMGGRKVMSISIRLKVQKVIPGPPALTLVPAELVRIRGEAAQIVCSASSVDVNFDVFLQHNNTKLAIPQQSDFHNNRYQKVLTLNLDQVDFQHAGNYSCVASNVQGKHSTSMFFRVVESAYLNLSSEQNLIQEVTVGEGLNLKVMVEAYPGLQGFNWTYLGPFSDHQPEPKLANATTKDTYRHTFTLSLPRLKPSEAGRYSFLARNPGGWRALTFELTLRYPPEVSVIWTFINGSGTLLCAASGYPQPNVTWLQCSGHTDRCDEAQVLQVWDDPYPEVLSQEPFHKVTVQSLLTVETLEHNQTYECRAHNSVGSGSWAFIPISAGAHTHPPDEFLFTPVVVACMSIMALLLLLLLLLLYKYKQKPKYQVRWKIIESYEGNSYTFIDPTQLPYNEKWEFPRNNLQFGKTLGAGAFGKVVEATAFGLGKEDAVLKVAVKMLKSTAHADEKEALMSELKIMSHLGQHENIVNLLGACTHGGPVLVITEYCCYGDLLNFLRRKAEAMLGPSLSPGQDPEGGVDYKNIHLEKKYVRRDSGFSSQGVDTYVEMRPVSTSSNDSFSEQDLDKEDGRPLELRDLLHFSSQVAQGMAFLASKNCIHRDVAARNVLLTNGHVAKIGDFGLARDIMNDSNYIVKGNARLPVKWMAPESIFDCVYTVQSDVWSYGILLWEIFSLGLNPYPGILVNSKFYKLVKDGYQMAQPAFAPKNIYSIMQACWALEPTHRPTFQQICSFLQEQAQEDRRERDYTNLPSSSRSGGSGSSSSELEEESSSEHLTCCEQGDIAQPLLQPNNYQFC

Sequence of KIT (P10721 whole entry): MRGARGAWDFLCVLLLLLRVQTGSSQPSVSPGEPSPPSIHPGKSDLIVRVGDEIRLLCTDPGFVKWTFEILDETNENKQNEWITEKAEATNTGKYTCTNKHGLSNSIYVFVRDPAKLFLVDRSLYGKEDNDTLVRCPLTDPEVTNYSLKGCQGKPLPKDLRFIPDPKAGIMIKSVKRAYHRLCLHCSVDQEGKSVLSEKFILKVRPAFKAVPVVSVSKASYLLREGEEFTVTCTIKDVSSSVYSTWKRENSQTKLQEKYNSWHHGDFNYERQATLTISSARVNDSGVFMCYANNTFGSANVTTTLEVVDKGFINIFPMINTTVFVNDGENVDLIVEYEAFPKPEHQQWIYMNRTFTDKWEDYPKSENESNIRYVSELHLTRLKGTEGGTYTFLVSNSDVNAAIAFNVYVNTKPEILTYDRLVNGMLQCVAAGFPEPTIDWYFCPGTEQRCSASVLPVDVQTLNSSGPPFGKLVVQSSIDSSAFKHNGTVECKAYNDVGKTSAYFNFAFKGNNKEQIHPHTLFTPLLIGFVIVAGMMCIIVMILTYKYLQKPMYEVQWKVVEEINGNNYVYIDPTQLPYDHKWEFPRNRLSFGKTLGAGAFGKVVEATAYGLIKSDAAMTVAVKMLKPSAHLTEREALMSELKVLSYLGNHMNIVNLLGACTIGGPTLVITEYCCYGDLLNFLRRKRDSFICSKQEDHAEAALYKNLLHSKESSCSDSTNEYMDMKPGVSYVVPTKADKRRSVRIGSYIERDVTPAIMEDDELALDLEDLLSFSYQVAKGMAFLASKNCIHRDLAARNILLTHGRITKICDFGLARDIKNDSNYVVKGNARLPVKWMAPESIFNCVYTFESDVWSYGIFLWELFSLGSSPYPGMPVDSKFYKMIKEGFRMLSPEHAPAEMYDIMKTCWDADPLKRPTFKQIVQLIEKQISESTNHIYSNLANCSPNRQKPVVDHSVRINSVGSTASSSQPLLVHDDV
T3 sequence (O60674 whole entry): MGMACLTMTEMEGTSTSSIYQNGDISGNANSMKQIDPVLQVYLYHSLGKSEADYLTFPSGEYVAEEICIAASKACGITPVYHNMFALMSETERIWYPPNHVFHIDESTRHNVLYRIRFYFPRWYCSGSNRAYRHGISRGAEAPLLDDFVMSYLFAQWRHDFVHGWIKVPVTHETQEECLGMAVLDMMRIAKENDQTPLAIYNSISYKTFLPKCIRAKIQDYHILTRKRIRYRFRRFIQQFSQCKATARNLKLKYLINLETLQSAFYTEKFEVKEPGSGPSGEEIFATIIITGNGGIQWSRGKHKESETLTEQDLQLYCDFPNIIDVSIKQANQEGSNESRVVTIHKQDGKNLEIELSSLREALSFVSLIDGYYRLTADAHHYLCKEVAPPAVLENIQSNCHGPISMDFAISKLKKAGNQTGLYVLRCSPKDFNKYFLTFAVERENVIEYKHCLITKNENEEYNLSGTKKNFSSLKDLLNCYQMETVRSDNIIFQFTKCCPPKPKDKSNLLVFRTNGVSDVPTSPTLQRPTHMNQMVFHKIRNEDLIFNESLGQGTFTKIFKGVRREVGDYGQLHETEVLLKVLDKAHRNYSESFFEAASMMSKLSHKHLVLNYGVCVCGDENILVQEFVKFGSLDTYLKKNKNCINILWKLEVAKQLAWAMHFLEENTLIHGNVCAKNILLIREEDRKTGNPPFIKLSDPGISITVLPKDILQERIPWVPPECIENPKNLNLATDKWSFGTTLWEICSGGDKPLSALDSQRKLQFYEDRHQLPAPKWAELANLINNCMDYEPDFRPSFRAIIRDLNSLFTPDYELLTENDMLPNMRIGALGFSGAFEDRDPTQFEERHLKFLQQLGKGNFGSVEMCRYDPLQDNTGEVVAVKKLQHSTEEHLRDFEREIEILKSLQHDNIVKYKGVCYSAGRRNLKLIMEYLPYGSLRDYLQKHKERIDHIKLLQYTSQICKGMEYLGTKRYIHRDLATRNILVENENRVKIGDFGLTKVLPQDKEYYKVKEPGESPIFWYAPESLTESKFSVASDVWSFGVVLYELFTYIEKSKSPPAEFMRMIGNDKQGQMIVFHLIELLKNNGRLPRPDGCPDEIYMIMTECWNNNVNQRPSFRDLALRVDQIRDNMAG
Sequence of AURKB (Aurora B) (Q96GD4 whole entry): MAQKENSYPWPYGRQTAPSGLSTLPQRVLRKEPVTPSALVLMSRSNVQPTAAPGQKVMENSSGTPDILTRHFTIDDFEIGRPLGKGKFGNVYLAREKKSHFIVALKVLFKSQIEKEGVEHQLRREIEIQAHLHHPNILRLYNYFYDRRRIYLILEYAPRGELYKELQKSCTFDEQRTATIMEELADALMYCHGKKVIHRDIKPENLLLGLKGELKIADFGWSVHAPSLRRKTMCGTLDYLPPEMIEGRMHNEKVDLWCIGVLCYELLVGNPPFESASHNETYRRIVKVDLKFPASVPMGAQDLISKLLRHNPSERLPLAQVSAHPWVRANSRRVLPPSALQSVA
Sequence of PAK1 (Q13153 whole entry): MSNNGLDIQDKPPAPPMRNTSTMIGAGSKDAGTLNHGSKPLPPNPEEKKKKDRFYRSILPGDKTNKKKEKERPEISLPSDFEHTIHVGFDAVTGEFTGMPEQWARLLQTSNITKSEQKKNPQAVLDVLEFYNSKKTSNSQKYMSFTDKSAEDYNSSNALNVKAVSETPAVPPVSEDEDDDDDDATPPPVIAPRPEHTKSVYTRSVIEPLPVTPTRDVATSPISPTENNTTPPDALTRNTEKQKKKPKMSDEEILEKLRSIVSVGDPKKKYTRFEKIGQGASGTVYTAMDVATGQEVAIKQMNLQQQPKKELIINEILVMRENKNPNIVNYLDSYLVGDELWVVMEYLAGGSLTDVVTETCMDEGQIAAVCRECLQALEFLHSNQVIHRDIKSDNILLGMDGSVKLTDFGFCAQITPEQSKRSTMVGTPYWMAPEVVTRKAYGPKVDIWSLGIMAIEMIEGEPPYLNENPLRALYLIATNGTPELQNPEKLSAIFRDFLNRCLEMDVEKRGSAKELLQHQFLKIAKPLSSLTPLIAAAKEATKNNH
Sequence of EPHA2 (P29317 whole entry): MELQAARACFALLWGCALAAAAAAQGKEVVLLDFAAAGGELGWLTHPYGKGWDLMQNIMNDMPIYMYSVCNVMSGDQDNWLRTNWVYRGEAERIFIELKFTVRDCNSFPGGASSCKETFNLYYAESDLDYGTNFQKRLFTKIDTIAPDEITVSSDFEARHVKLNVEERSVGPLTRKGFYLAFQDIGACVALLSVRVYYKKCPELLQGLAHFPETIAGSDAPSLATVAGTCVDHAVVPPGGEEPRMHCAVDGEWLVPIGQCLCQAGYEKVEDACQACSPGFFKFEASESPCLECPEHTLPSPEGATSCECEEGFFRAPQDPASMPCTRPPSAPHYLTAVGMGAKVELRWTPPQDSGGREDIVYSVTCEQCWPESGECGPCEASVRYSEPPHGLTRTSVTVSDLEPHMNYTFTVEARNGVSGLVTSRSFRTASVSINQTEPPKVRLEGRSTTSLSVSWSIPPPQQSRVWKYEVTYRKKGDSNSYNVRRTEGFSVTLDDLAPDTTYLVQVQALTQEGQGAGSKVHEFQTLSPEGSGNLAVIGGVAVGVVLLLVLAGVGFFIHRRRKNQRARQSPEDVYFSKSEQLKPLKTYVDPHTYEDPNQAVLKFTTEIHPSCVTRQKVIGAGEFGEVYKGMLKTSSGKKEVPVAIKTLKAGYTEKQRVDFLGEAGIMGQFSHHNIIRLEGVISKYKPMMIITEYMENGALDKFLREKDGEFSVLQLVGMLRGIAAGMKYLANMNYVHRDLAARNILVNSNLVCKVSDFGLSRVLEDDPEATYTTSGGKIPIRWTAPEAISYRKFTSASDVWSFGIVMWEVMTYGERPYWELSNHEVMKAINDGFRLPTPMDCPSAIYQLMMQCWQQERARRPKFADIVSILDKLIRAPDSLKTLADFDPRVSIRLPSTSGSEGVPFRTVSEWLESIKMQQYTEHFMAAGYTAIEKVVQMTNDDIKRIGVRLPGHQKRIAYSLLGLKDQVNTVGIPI

inhibition at 1 µM (AURKB (Aurora B)) [%] | inhibition at 3 µM (AURKB (Aurora B)) [%] | inhibition at 10 µM (AURKB (Aurora B)) [%] | inhibition at 1 µM (EPHA2) [%] | inhibition at 3 µM (EPHA2) [%] | inhibition at 10 µM (EPHA2) [%] | inhibition at 1 µM (PAK1) [%] | inhibition at 3 µM (PAK1) [%] | inhibition at 10 µM (PAK1) [%] | inhibition at 1 µM (PRKACA (PKA)) [%] | inhibition at 3 µM (PRKACA (PKA)) [%] | inhibition at 10 µM (PRKACA (PKA)) [%] | inhibition at 1 µM (KIT) [%] | inhibition at 3 µM (KIT) [%] | inhibition at 10 µM (KIT) [%] | inhibition at 1 µM (INSR) [%] | inhibition at 3 µM (INSR) [%] | inhibition at 10 µM (INSR) [%] | inhibition at 1 µM (AXL) [%] | inhibition at 3 µM (AXL) [%] | SMILES | other results
-15.7 | -5.68 | -10.8 | 6.54 | 8.4 | 9.38 | -5.17 | -2.58 | -1.88 | 9.73 | 5.23 | 4.58 | -11.3 | 5.95 | -5.32 | 3.42 | 3.95 | 0.721 | -3.88 | -5.8 | O=C(CSc1nc2nccnc2c(=O)n1CCc1ccccc1)Nc1nccs1 [compound 1, PITCOIN1] | inhibition at 10 µM (AXL): -2.92%; inhibition at 1 µM (ACVR1B (ALK4)): 3.41%; inhibition at 3 µM (ACVR1B (ALK4)): 5.04%; inhibition at 10 µM (ACVR1B (ALK4)): 3.29%; inhibition at 1 µM (JAK2 JH1 JH2): -0.97%; inhibition at 3 µM (JAK2 JH1 JH2): -0.0652%; inhibition at 10 µM (JAK2 JH1 JH2): -0.468%; inhibition at 1 µM (CSF1R (FMS)): 12.1%; inhibition at 3 µM (CSF1R (FMS)): 7.54%; inhibition at 10 µM (CSF1R (FMS)): 7.66%
-3.65 | 2.11 | 6.27 | 13.8 | 8.03 | 8.38 | 21.4 | -0.318 | 19.2 | 9.77 | 8.29 | 5.74 | -9.5 | 14.5 | -3.62 | 3.69 | 4.01 | 4.66 | -4.95 | -1.87 | CS(=O)(=O)Nc1cccc(-c2csc(NC(=O)CSc3nc4nccnc4c(=O)n3CCc3ccccc3)n2)c1 [compound 3, PITCOIN3] | inhibition at 10 µM (AXL): -3.45%; inhibition at 1 µM (ACVR1B (ALK4)): 5.04%; inhibition at 3 µM (ACVR1B (ALK4)): 9.13%; inhibition at 10 µM (ACVR1B (ALK4)): 4.09%; inhibition at 1 µM (JAK2 JH1 JH2): 0.755%; inhibition at 3 µM (JAK2 JH1 JH2): 0.839%; inhibition at 10 µM (JAK2 JH1 JH2): 1.69%; inhibition at 1 µM (CSF1R (FMS)): 10.1%; inhibition at 3 µM (CSF1R (FMS)): 14%; inhibition at 10 µM (CSF1R (FMS)): 13.3%
